Laboratory results as given in US20240101548A1, “HYDROXAMATE COMPOUND, PREPARATION METHOD THEREFOR AND APPLICATION THEREOF” (SHENZHEN CHIPSCREEN BIOSCIENCES CO., LTD., priority 2020, published 2024).
Where two headings read alike, the source gives them in different places.

Tests used:
[1] = test system: EPO-induced JAK2 signal pathway; test: EPO-induced proliferation of UT-7 cells (JAK2 signal); type: cell-based, human; conditions: Homo sapiens, UT7; UT-7 cell proliferation, EPO 10 ng/mL, 72 hours; read-out: Inhibition activity IC50 on EPO-induced JAK2 signal pathway
Procedure: The cytokine EPO, i.e. erythropoietin, can promote the proliferation and division of erythroid progenitor cells, and the signal pathway induced by EPO coupling with its receptor is mediated by JAK2-STAT5.
Human promegakaryocytic leukemia cell line UT-7 was commercially available from Cell Resource Center, Institute of Basic Medicine, Chinese Academy of Medical Sciences. The culture medium was RPIM1640 containing 10% FBS, and EPO was added for a final concentration of 10 ng/mL.
The inhibition rate of the tested compound on EPO-induced cell proliferation was calculated using Microsoft Excel.
UT-7 cell line was inoculated in 96-well plate with flat bottom at 15000 cells per well, each well was added with 10 ng/mL of human recombinant EPO (Human EPO PEPROTECH 100-64-10UG), along with tested compound respectively for a final concentration of 0, 100, 1000 or 10000 nM. After culture at 37° C. and 5% CO2 for 72 hours, alamarBlue™ Cell Viability Reagent was added to each well following the instructions. After incubation at 37° C. for color reaction, the fluorescence value at Ex530/Em590 was detected using Tecan Spark™ 10M multimode microplate reader.
(§1) The well in which neither compound nor cytokine was added was designated as 00 control well, and the fluorescence value in the wells in which the final concentration of compound was 0 was designated as 100 control. The inhibition activity MC50 ofthe tested compound on JAK2 could be calculated from the inhibition rate ofthe tested compound on EPO-induced cell proliferation at different doses.

[2] = test system: IL-2-induced JAK1/JAK3 signal pathway; test: IL-2-induced proliferation of KHYG-1 cells (JAK1/JAK3 signal); type: cell-based, human; conditions: Homo sapiens, read-out: Inhibition activity IC50 on IL-2-induced JAK1/JAK3 signal pathway
Text: The main physiological function of cytokine IL-2 is to stimulate and maintain the proliferation and differentiation of T cells. Generally, IL-2 dependent T cells cannot survive in in-vitro culture for a long time, but the addition of IL-2 can make them continue to proliferate. The signal pathway induced by IL-2 coupling with its receptor is mediated by JAK1/JAK3-STAT5, so the inhibitor of JAK1 and/or JAK3 can inhibit the proliferation of IL-2 dependent cells.
Human natural killer cell lymphoma cell line KHYG-1 was commercially available from Health Science Research Resources Bank (HSRRB), and relevant culture conditions referred to those from HSRRB.
The inhibition rate of the tested compound on IL-2-induced cell proliferation was calculated using Microsoft Excel.
After culture at 37° C. and 5% CO2 for 72 hours, alamarBlue™ Cell Viability Reagent was added to each well following the instructions.
as §1, with “0%” for “00”, “100%” for “100”, “[…] of the” for “MC50 ofthe”, “JAK1/JAK3” for “JAK2”, “of the” for “ofthe”, “IL-2-induced” for “EPO-induced”

[3] = KHYG-1 cell proliferation, IL-2 10 ng/mL, 72 hours

SMILES | IC50 [1] [µM] | IC50 [2, 3] [µM] | IC50 ([2]; KHYG-1, 72 h) [µM]
CONC(=O)c1cnc(NC(=O)C2CC2)cc1Nc1cccc(-c2ccn(C)n2)c1OCC(F)(F)F [Example 50, 6-(cyclopropylcarboxamido)-N-methoxy-4-((3-(1-methyl-1H-pyrazol-3-yl)-2-(2,2,2-trifluoroethoxy)phenyl)amino)nicotinamide] | > 10 | > 10 | 
CONC(=O)c1cnc(Nc2ccc(F)cn2)cc1Nc1cccc(-c2ccn(C)n2)c1OCC(F)(F)F [Example 51, 6-((5-fluoropyridin-2-yl)amino)-N-methoxy-4-((3-(1-methyl-1H-pyrazol-3-yl)-2-(2,2,2-trifluoroethoxy)phenyl)amino)nicotinamide] | > 10 | > 10 | 
CONC(=O)c1nnc(NC(=O)C2CC2)cc1Nc1cccc(-c2ncn(C)n2)c1OC [Example 52, 6-(cyclopropylcarboxamido)-N-methoxy-4-((2-methoxy-3-(1-methyl-1H-1,2,4-triazol-3-yl)phenyl)amino)pyridazine-3-carboxamide] | > 10 | > 10 | 
CONC(=O)c1nnc(NC(=O)C2CC2)cc1Nc1cccc(-c2ccn(C)n2)c1OC [Example 53, 6-(cyclopropylcarboxamido)-N-methoxy-4-((2-methoxy-3-(1-methyl-1H-pyrazol-3-yl)phenyl)amino)pyridazine-3-carboxamide] | > 10 | > 10 | 
CONC(=O)c1cnc(NC(=O)C2CC2)cc1Nc1cccc(-c2cnn(C)c2)c1OC(F)F [Example 54, 6-(cyclopropylcarboxamido)-4-((2-(difluoromethoxy)-3-(1-methyl-1H-pyrazol-4-yl)phenyl)amino)-N-methoxy nicotinamide] | > 10 | > 10 | 
CONC(=O)c1cnc(NC(=O)C2CC2)cc1Nc1cccc(-c2noc(C)n2)c1OC [Example 55, 6-(cyclopropylcarboxamido)-N-methoxy-4-((2-methoxy-3-(5-methyl-1,2,4-oxadiazol-3-yl)phenyl)amino)nicotinamide] | > 10 | > 10 | 
CONC(=O)c1cnc(NC(=O)C2CC2)cc1Nc1cnccc1N(C)S(C)(=O)=O [Example 56, 6-(cyclopropylcarboxamido)-N-methoxy-4-((4-(N-methylmethanesulfonamido)pyridin-3-yl)amino)nicotinamide] | > 10 | > 10 | 
CONC(=O)c1cnc(NC(=O)C2CC2)cc1Nc1cccc(C(N)=O)c1OC [Example 57, 4-((3-carbamoyl-2-methoxyphenyl)amino)-6-(cyclopropylcarboxamido)-N-methoxy nicotinamide] | > 10 | > 10 | 
CONC(=O)c1cnc(Nc2ccc(F)cn2)cc1Nc1cnccc1N(C)S(C)(=O)=O [Example 58, 6-((5-fluoropyridin-2-yl)amino)-N-methoxy-4-((4-(N-methylmethanesulfonamido)pyridin-3-yl)amino)nicotinamide] | > 10 | > 10 | 
CONC(=O)c1cnc(NC(=O)C2CC2)cc1Nc1ccc(C)nc1N(C)S(C)(=O)=O [Example 59, 6-(cyclopropylcarboxamido)-N-methoxy-4-((6-methyl-2-(N-methylmethanesulfonamido)pyridin-3-yl)amino)nicotinamide] | > 10 | > 10 | 
CONC(=O)c1cnc(Nc2ccc(F)cc2)cc1Nc1ccc(C)nc1N(C)S(C)(=O)=O [Example 64, 6-((4-fluorophenyl)amino)-N-methoxy-4-((6-methyl-2-(N-methylmethanesulfonamido)pyridin-3-yl)amino)nicotinamide] | > 10 | > 10 | 
CON(C)C(=O)c1cnc(Nc2cccc(F)n2)cc1Nc1ccccc1N(C)S(C)(=O)=O [Example 65, 6-((6-fluoropyridin-2-yl)amino)-N-methoxy-N-methyl-4-((2-(N-methylmethanesulfonamido)phenyl)amino)nicotinamide] | > 10 |  | > 10
CCONC(=O)c1cnc(Nc2nc(C)cc(C)n2)cc1Nc1ccc(C)cc1N(C)S(=O)(=O)C1CC1 [Example 66, 6-((4,6-dimethylpyrimidin-2-yl)amino)-N-ethoxy-4-((4-methyl-2-(N-methylcyclopropylsulfonamido)phenyl)amino)nicotinamide] | > 10 | > 10 | 
CONC(=O)c1c(Nc2ccc(C3CC3)cc2N(C)S(C)(=O)=O)cc(Nc2cccc(F)n2)nc1C [Example 67, 4-((4-cyclopropyl-2-(N-methylmethanesulfonamido)phenyl)amino)-6-((6-fluoropyridin-2-yl)amino)-N-methoxy-2-methyl nicotinamide] | > 10 | > 10 | 
CCNC(=O)c1cnc(NC(=O)C2CC2)cc1Nc1cccc(-c2cnn(C)c2)c1OC [Example 71, 6-(cyclopropylcarboxamido)-N-ethyl-4-((2-methoxy-3-(1-methyl-1H-pyrazol-4-yl)phenyl)amino)nicotinamide] | > 10 | > 10 | 
CONC(=O)c1cnc(Nc2ccc(S(C)(=O)=O)cc2)cc1Nc1cccc(-c2cnn(C)c2)c1OC [Example 72, N-methoxy-4-((2-methoxy-3-(1-methyl-1H-pyrazol-4-yl)phenyl)amino)-6-((4-(methanesulfonyl)phenyl)amino)nicotinamide] | > 10 | > 10 | 
CONC(=O)c1cnc(NC(=O)C2CC2)cc1Nc1ccccc1P(C)(C)=O [Example 73, 6-(cyclopropylcarboxamido)-4-((2-(dimethylphosphoryl)phenyl)amino)-N-methoxy nicotinamide] | > 10 | > 10 | 
CONC(=O)c1cnc(Nc2cccc(F)n2)cc1Nc1ccccc1P(C)(C)=O [Example 74, 4-((2-(dimethylphosphoryl)phenyl)amino)-6-((6-fluoropyridin-2-yl)amino)-N-methoxy nicotinamide] | > 10 | > 10 | 
CONC(=O)c1cnc(NC(=O)C2CC2)cc1Nc1cccc(Cl)c1N(C)S(C)(=O)=O [Example 75, 4-((3-chloro-2-(N-methylmethanesulfonamido)phenyl)amino)-6-(cyclopropylcarboxamido)-N-methoxy nicotinamide] | > 10 | > 10 | 
CONC(=O)c1cnc(Nc2cccc(F)n2)cc1Nc1cccc(Cl)c1N(C)S(C)(=O)=O [Example 76, 4-((3-chloro-2-(N-methylmethanesulfonamido)phenyl)amino)-6-((6-fluoropyridin-2-yl)amino)-N-methoxy nicotinamide] | > 10 | > 10 | 
CONC(=O)c1cnc(Nc2ccc(F)cn2)cc1Nc1cccc(Cl)c1N(C)S(C)(=O)=O [Example 77, 4-((3-chloro-2-(N-methylmethanesulfonamido)phenyl)amino)-6-((5-fluoropyridin-2-yl)amino)-N-methoxy nicotinamide] | > 10 | > 10 | 
CONC(=O)c1cnc(Nc2cccnc2OC)cc1Nc1cccc(Cl)c1N(C)S(C)(=O)=O [Example 78, 4-((3-chloro-2-(N-methylmethanesulfonamido)phenyl)amino)-N-methoxy-6-((2-methoxypyridin-3-yl)amino)nicotinamide] | > 10 | > 10 | 
CONC(=O)c1cnc(NC(=O)C2CC2)cc1Nc1cccc(C(F)(F)F)c1N(C)S(C)(=O)=O [Example 82, 6-(cyclopropylcarboxamido)-N-methoxy-4-((2-(N-methylmethanesulfonamido)-3-(trifluoromethyl)phenyl)amino)nicotinamide] | > 10 | > 10 | 
CONC(=O)c1cnc(Nc2cccc(F)n2)cc1Nc1cccc(C(F)(F)F)c1N(C)S(C)(=O)=O [Example 83, 6-((6-fluoropyridin-2-yl)amino)-N-methoxy-4-((2-(N-methylmethanesulfonamido)-3-(trifluoromethyl)phenyl)amino)nicotinamide] | > 10 | > 10 | 
CONC(=O)c1cnc(Nc2ccc(F)cn2)cc1Nc1cccc(C(F)(F)F)c1N(C)S(C)(=O)=O [Example 84, 6-((5-fluoropyridin-2-yl)amino)-N-methoxy-4-((2-(N-methylmethanesulfonamido)-3-(trifluoromethyl)phenyl)amino)nicotinamide] | > 10 | > 10 | 
